In patent US5523308A, “Peptidyl heterocycles useful in the treatment of thrombin related disorders” (priority 1995, dated 1996):

Legend:
human alpha-thrombin = target: T1, human alpha-thrombin (Homo sapiens, UniProt P00734); experiment: Thrombin-catalyzed hydrolysis of chromogenic substrate Spectozyme TH (in vitro enzyme assay); assay type: biochemical; conditions: 1 nM thrombin, 37° C., pH 7.4; for Ki: 5-100 μM Spectozyme TH, read-out: Thr Ki (listed in place of the IC50); for IC50: 50 μM Spectozyme TH, read-out: Thr IC50
T1 construct: commercial human alpha-thrombin (American Diagnostica); purchased American Diagnostica
Procedure: Thrombin-catalyzed hydrolysis rates were measured spectrophotometrically using commercial human alpha-thrombin (American Diagnostica), a chromogenic substrate (Spectozyme® TH (H-D-HHT-Ala-Arg-pNA.2AcOH), American Diagnostica) in aqueous buffer (10 mM Tris, 10 mM Hepes, 150 mM NaCl, 0.1% PEG; pH 7.4), and a microplate reader (Molecular Devices). Changes in absorbance at 405 nm were monitored (Softmax, Molecular Devices), upon addition of enzyme, both with and without inhibitor present at 37° C. over 30 minutes. […] Michaelis-Menton kinetics were applied to the initial reaction slopes. […] Michaelis-Menton kinetics were applied to the initial reaction slopes using the program K.Cat (Bio Metallics Inc.).

Bovine type 1 trypsin = target: T2, Bovine type 1 trypsin (Bos taurus, UniProt P00760); experiment: Trypsin-catalyzed hydrolysis of chromogenic substrate Spectrozyme TRY (in vitro enzyme assay); assay type: biochemical; conditions: 3.2 U/ml trypsin, 0.1-0.3 mM Spectrozyme TRY; for Ki: read-out: Trp Ki (listed in place of the IC50); for IC50: read-out: Trp IC50
T2 construct: purchased Sigma
T2 sequence (P00760 24-246): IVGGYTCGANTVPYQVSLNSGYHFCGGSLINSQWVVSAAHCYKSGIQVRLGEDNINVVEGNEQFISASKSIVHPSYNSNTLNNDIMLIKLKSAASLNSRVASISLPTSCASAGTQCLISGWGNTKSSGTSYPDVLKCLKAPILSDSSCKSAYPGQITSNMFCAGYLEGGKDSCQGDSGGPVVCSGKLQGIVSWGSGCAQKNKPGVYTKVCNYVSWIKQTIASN
Procedure: The compounds of the invention were tested for their ability to inhibit thrombin mediated hydrolysis. An in vitro enzyme assay was performed as well as an ex vivo assay. In addition, the compounds were tested in vitro for their ability to inhibit trypsin, as an indication of their selectivity.
Trypsin-catalyzed hydrolysis rates were measured using the same method as the thrombin procedure.
The compound numbers in the table correspond to the examples described hereinafter.

[1] = rat, in vivo, iv
Procedure: An ex vivo assay was conducted to determine the duration of action of the compounds of Formula I. For this i.v. assay male rats (Long Evans, 350-500 g) were implanted with a teflon cannulae via the femoral artery while under anesthesia (pentobarbital i.p., 35 mg/kg). […] The animals were allowed to recover for at least 24 h after the surgical procedure.
The test compound was dispersed in water and delivered to the animal (0.25 mL) via the femoral vein. […] A plasma sample was obtained by centrifuging the blood at 10,000 rpm for 5 min. This sample is analyzed for thrombin inhibition using the chromogenic assay, described below.
Datum was collected over a 30 min period and the initial rate of substrate hydrolysis (V0 (mOD/min)) was calculated with an analysis program (Softmax, Molecular Devices).
The time to half plasma elimination (t 1/2) was calculated from the slope of Vo vs. time, using the following equation: t 1/2=-1.6 slope.

Row | Structure (SMILES) | IC50 (Bovine type 1 trypsin) | IC50 (human alpha-thrombin) | other results
1 | CN(C)c1cccc2c(S(=O)(=O)N[C@@H](CCCNC(=N)N)C(=O)N3CCCCC3CCC(=O)c3nccs3)cccc12 (single isomer, unassigned) [Compound 26] |  |  | Ki (human alpha-thrombin): 38 µM; Ki (Bovine type 1 trypsin): 180 µM
2 | CN(C)c1cccc2c(S(=O)(=O)N[C@@H](CCCNC(=N)N)C(=O)N3CCCCC3CCC(=O)c3nccs3)cccc12 (single isomer, unassigned) [Compound 27] |  |  | Ki (human alpha-thrombin): 1.2 µM; Ki (Bovine type 1 trypsin): 12 µM
3 | CC1CNc2c(cccc2S(=O)(=O)N[C@@H](CCCNC(=N)N)C(=O)N2CC[C@@H](C)C[C@@H]2C(=O)O)C1 (stereo partly drawn) [Argatroban, reference compound] |  |  | Ki (Bovine type 1 trypsin): 2.9 µM
4 | CN[C@H](Cc1ccccc1)C(=O)N1CCC[C@H]1C(=O)N[C@H](CCCNC(=N)N)C(=O)c1nc2ccccc2s1 [Compound 2, N-METHYL-D-PHENYLALANYL-N-[4-[(AMINOIMINOMETHYL)AMINO]-1R-[(BENXOTHIAZOL-2- YL)CARBONYL]BUTYL]-L-PROLINAMIDE] |  |  | Ki (human alpha-thrombin): 0.0009 µM
5 | CN[C@H](Cc1ccccc1)C(=O)N1CCC[C@H]1C(=O)N[C@@H](CCCCNC(=N)N)C(=O)c1nc2ccccc2s1 [Compound 11, N-METHYL-D-PHENYLALANYL-N-[5-[(AMINOIMINOMETHYL)AMINO]-1S-[(BENXOTHIAZOL-2- YL)CARBONYL]PENTYL]-L-PROLINAMIDE] |  |  | Ki (human alpha-thrombin): 0.42 µM; Ki (Bovine type 1 trypsin): 6.01 µM
6 | CN[C@H](Cc1ccccc1)C(=O)N1CCC[C@H]1C(=O)N[C@@H](CCCNC(=N)N)C(=O)c1nc2ccc(C(=O)OC)cc2s1 [Compound 12, N-METHYL-D-PHENYLALANYL-N-[4-[(AMINOIMINOMETHYL)AMINO]-2S-[(6-METHOXYCARBON YLBENXOTHIAZOL-2-YL)CARBONYL]BUTYL]-L-PROLINAMIDE] | 0.003 µM |  | t1/2 (time to half plasma elimination) [1]: 43 min
7 | CN[C@H](Cc1ccccc1)C(=O)N1CCC[C@H]1C(=O)N[C@@H](CCCNC(=N)N)C(=O)c1nc2ccc(C(=O)O)cc2s1 [Compound 13, N-METHYL-D-PHENYLALANYL-N-[4-[(AMINOIMINOMETHYL)AMINO]-1S-[(6-CARBOXYBENXOT HIAZOL-2-YL)CARBONYL]BUTYL]-L-PROLINAMIDE] | 0.002 µM |  | t1/2 (time to half plasma elimination) [1]: 25 min
8 | CN[C@H](Cc1ccccc1)C(=O)N1CCC[C@H]1C(=O)N[C@@H](CCCNC(=N)N)C(=O)c1nc2ccc(C(N)=O)cc2s1 [Compound 14, N-METHYL-D-PHENYLALANYL-N-[4-[(AMINOIMINOMETHYL)AMINO]-1S-[(6-CARBOXAMIDOBE NXOTHIAZOL-2-YL)CARBONYL]BUTYL]-L-PROLINAMIDE] | 0.003 µM |  | 
9 | CN[C@H](Cc1ccccc1)C(=O)N1CCC[C@H]1C(=O)N[C@@H](CCCNC(=N)N)C(=O)c1nc2ccc(CO)cc2s1 [Compound 15, N-METHYL-D-PHENYLALANYL-N-[4-[(AMINOIMINOMETHYL)AMINO]-1S-[(6-HYDROXYMETHYL BENXOTHIAZOL-2-YL)CARBONYL]BUTYL]-L-PROLINAMIDE] | 0.003 µM |  | t1/2 (time to half plasma elimination) [1]: 16 min
10 | CN[C@H](Cc1ccccc1)C(=O)N1CCC[C@H]1C(=O)N[C@H](CCCNC(=N)N)C(=O)c1nc2ccc(CO)cc2s1 [Compound 16, N-METHYL-D-PHENYLALANYL-N-[4-[(AMINOIMINOMETHYL)AMINO]-1R-[(6-HYDROXYMETHYL BENXOTHIAZOL-2-YL)CARBONYL]BUTYL]-L-PROLINAMIDE] | 0.238 µM |  | 
11 | CN[C@H](Cc1ccccc1)C(=O)N1CCC[C@H]1C(=O)N[C@@H](CCCNC(=N)N)C(=O)c1nc2ccc(F)cc2s1 [Compound 17, N-METHYL-D-PHENYLALANYL-N-[4-[(AMINOIMINOMETHYL)AMINO]-1S-[(6-FLUOROBENXOTH IAZOL-2-YL)CARBONYL]BUTYL]-L-PROLINAMIDE] | 0.004 µM |  | t1/2 (time to half plasma elimination) [1]: 8 min
12 | CN[C@H](Cc1ccccc1)C(=O)N1CCC[C@H]1C(=O)N[C@@H](CCCNC(=N)N)C(=O)c1nc2ccc(F)cc2s1 [Compound 18, N-METHYL-D-PHENYLALANYL-N-[4-[(AMINOIMINOMETHYL)AMINO]-1S-[(6-FLUOROBENXOTH IAZOL-2-YL)CARBONYL]BUTYL]-L-PROLINAMIDE] | 0.13 µM |  | 
13 | CCOC(=O)c1csc(C(=O)[C@H](CCCNC(=N)N)NC(=O)[C@@H]2CCCN2C(=O)[C@@H](Cc2ccccc2)NC)n1 [Compound 20, N-METHYL-D-PHENYLALANYL-N-[4-[(AMINOIMINOMETHYL)AMINO]-1S-[(4-ETHOXYCARBONY LTHIAZOL-2-YL)CARBONYL]BUTYL]-L-PROLINAMIDE] | 0.058 µM | 0.45 µM | 
14 | CN[C@H](Cc1ccccc1)C(=O)N1CCC[C@H]1C(=O)N[C@@H](CCCNC(=N)N)C(=O)c1nccn1C [Compound 22] | 18.4 µM | 1.52 µM | 
15 | CN[C@H](Cc1ccccc1)C(=O)N1CCC[C@H]1C(=O)N[C@@H](CCCNC(=N)N)C(=O)c1ccccn1 [Compound 23] | 0.238 µM | 0.928 µM | 
16 | CN[C@H](Cc1ccccc1)C(=O)N1CCC[C@H]1C(=O)N[C@@H](CCCNC(=N)N)C(=O)c1nc2ccccc2c(=O)[nH]1 [Compound 24] | 0.014 µM | 0.106 µM | 
17 | CN[C@H](CC1CCCCC1)C(=O)N1CCC[C@H]1C(=O)N[C@@H](CCCNC(=N)N)C(=O)c1nc2ccccc2s1 [Compound 29, N-METHYL-D-CYOLOHEXYLALANYL-N-[4-[(AMINOIMINOMETHYL)AMINO]-1S-[(BENXOTHIAZO L-2-YL)CARBONYL]BUTYL]-L-PROLINAMIDE] | 0.002 µM |  | t1/2 (time to half plasma elimination) [1]: 14 min
18 | N=C(N)NCCC[C@H](NC(=O)C1CCCC1)C(=O)c1nc2ccccc2s1 [Compound 31] | 0.08 µM |  | 
19 | CN[C@H](Cc1ccc(F)cc1)C(=O)N1CCC[C@H]1C(=O)N[C@@H](CCCNC(=N)N)C(=O)c1nc2ccccc2s1 [Compound 32, N-METHYL-D-(4-FLUOROPHENYL)ALANYL-N-[4-[(AMINOIMINOMETHYL)AMINO]-1S-[(BENXO THIAZOL-2-YL)CARBONYL]BUTYL]-L-PROLINAMIDE] | 0.002 µM |  | t1/2 (time to half plasma elimination) [1]: 19 min
20 | CNC(C(=O)N1CCCC1C(=O)NC(CCCNC(=N)N)C(=O)c1nc2ccccc2s1)c1ccccc1 [Compound 33, N-METHYL-D-PHENYLGLYCYL-N-[4-[(AMINOIMINOMETHYL)AMINO]-1S-[(BENXOTHIAZOL-2- YL)CARBONYL]BUTYL]-L-PROLINAMIDE] | 0.002 µM |  | t1/2 (time to half plasma elimination) [1]: 18 min
21 | CN[C@H](Cc1ccccc1)C(=O)N1CCC[C@H]1C(=O)N[C@@H](Cc1ccccc1)C(=O)c1nc2ccccc2s1 [Compound 38] | 38.7 µM | 29.9 µM | 
22 | CN[C@H](Cc1ccccc1)C(=O)N1CCC[C@H]1C(=O)N[C@@H](CCCNC(=N)N)C(=O)c1nc2ccc(OC)cc2s1 [Compound 50, N-METHYL-D-PHENYLALANYL-N-[4-[(AMINOIMINOMETHYL)AMINO]-1S-[(6-METHOXYBENXOT HIAZOL-2-YL)CARBONYL]BUTYL]-L-PROLINAMIDE] |  |  | Ki (Bovine type 1 trypsin): 0.002 µM
23 | CN[C@H](Cc1ccccc1)C(=O)N1CCC[C@H]1C(=O)N[C@H](C=O)CCCNC(=N)N [reference compound] |  |  | Ki (Bovine type 1 trypsin): 0.0039 µM

Further lines, with some results ahead:

Row | IC50 (Bovine type 1 trypsin) | IC50 (human alpha-thrombin) | Structure (SMILES) | other results
24 | 7.01 µM | 20.5 µM | CN[C@H](Cc1ccccc1)C(=O)N1CCC[C@H]1C(=O)N(C)[C@@H](CCCNC(=N)N)C(=O)c1nc2ccccc2s1 [Compound 40] | 
25 | 0.001 µM |  | N=C(N)NCCC[C@H](NC(=O)[C@@H]1CCCN1C(=O)[C@H](N)Cc1ccccc1)C(=O)c1nc2ccccc2s1 [Compound 41, D-PHENYLALANYL-N-[4-[(AMINOIMINOMETHYL)AMINO]-1S-[(BENZOTHIAZOL-2-YL)CARBON YL]BUTYL]-L-PROLINAMIDE] | 
26 | 0.002 µM |  | CN[C@H](Cc1ccccc1)C(=O)N1CCCC[C@H]1C(=O)N[C@@H](CCCNC(=N)N)C(=O)c1nc2ccccc2s1 [Compound 42, N-METHYL-D-PHENYLALANYL-N-[4-[(AMINOIMINOMETHYL)AMINO]-1S-[(BENZOTHIAZOL-2- YL)CARBONYL]BUTYL]-2S-PIPERIDINECARBOXAMIDE] | 
27 | 0.009 µM | 0.371 µM | CNC1(C(=O)N2CCC[C@H]2C(=O)N[C@@H](CCCNC(=N)N)C(=O)c2nc3ccccc3s2)CCCCC1 [Compound 45, 1-(N-METHYLAMINO)-1-CYCLOHEXYLCARBONYL-N-[4-[(AMINOIMINOMETHYL)AMINO]-1S-[( BENZOTHIAZOL-2-YL)CARBONYL]BUTYL]-L-PROLINAMIDE] | 
28 | 0.003 µM | 0.015 µM | N=C(N)NCCC[C@H](NC(=O)[C@@H]1CCCN1C(=O)C(N)(c1ccccc1)c1ccccc1)C(=O)c1nc2ccccc2s1 [Compound 46] | 
29 | 0.004 µM |  | C[C@@](N)(Cc1ccccc1)C(=O)N1CCC[C@H]1C(=O)N[C@@H](CCCNC(=N)N)C(=O)c1nc2ccccc2s1 [Compound 47] | 
30 | 0.684 µM |  | N=C(N)NCCC[C@H](NC(=O)[C@@H]1CCCN1)C(=O)c1nc2ccccc2s1 [Compound 48] | 
31 | 0.0086 µM | 0.83 µM | CN[C@H](Cc1ccccc1)C(=O)N1CCC[C@H]1C(=O)N[C@@H](CCCNC(=N)N)C(=O)c1nc(C(=O)NCCc2ccccc2)cs1 [Compound 55] | 
32 | 0.0279 µM | 21 µM | CN[C@H](Cc1ccccc1)C(=O)N1CCC[C@H]1C(=O)N[C@H](CCCNC(=N)N)C(=O)c1nc(C(=O)NCCc2ccccc2)cs1 [Compound 56] | 
33 | 0.182 µM | 19.6 µM | CN[C@H](Cc1ccccc1)C(=O)N1CCC[C@H]1C(=O)N[C@@H](Cc1ccc(C(=N)N)cc1)C(=O)c1nc2ccccc2s1 [Compound 57] | 
